According to US20230057568A1, “COMPOUNDS FOR TREATING FAMILIAL DYSAUTONOMIA” (PTC THERAPEUTICS, INC., priority 2019, published 2023):

Tested on: Elongator complex protein 1 (ELP1, also referred to as IKBKAP)
Test: IKBKAP-HTRF Assay
Assay type: cell-based, human
Details: FD patient-derived fibroblasts GM04589, 48 hours incubation; for EC2x for IKBKAP protein expression (concentration producing two times the amount of IKBKAP protein vs DMSO vehicle control): 7-point concentration curve; for MFI (maximum fold increase in IKBKAP protein abundance relative to the vehicle control): HTRF
Description: The assay is used for the quantitative determination of Elongator complex protein 1 (ELP1, also referred to as IKBKAP) concentration in cell lysates using the HTRF® (Homogeneous Time-Resolved Fluorescence) technology. IKBKAP is detected in a sandwich HTRF assay by use of an anti-IKAP antibody labeled with a donor and an anti-IKAP antibody labeled with an acceptor.
Cells were thawed and incubated in DMEM-10% FBS for 72 hours. Cells were trypsinized, counted, and re-suspended to a concentration of 50,000 cells/mL in DMEM-10% FBS. A 199 μL, aliquot of the cell suspensions were plated at 10,000 cells per well in a 96 well microtiter plate and incubated for 3 to 5 hours. […] Test compounds were serially diluted 3.16-fold in 100% DMSO to generate a 7-point concentration curve. A 1 μL aliquot of 200× compound solution was transferred to cell-containing wells, and cells were incubated for 48 hours in a cell culture incubator (37° C., 5% CO2, 100% relative humidity). Triplicate samples were set up for each compound concentration. After 48 hours, the supernatant was removed from the cells and 50 μL of the 1× LB4 lysis buffer, containing protease inhibitors, was added to the cells and incubated with shaking at room temperature for 1 hour. A 36 μL aliquot of this lysate was subsequently transferred to the 384-well plate containing 4 μL of the antibody solution (1:50 dilution of anti IKAP d2 and anti-IKAP K(9+8) in detection buffer). The 384-well plate was then centrifuged for 1 minute to bring the solutions to the bottom of the plate and incubated overnight at 4° C. Fluorescence for each well of the plate at 665 nm and 620 nm was measured was on the EnVision plate reader (Perkin Elmer). The AF for each sample is calculated by: […]
wherein Signal is the normalized fluorescence for each sample well and Blank is the average normalized average fluorescence for the Blank control wells.
The maximum fold increase (MFI) in IKBKAP protein abundance for compounds of Formula (I) or a form thereof relative to the vehicle control are provided in Table 1. MFI was calculated by dividing the AF value for each sample well by the sample AF for the vehicle control wells.
The EC2× for IKBKAP protein expression obtained from the 7-point concentration curve generated for each test compound according to the protocol in Biological Example 1 are also provided in Table 1. The term “EC2× for IKBKAP protein expression” is defined as the concentration of test compound that is effective in producing two times the amount of IKBKAP protein in a FD patient cell compared to the amount produced from the DMSO vehicle control.

Row | SMILES | EC2x for IKBKAP protein expression (concentration producing two times the amount of IKBKAP protein vs DMSO vehicle control) | MFI (maximum fold increase in IKBKAP protein abundance relative to the vehicle control)
1 | CC[C@H](N)Cc1sc2c(NCc3cccs3)nc(Cl)nc2c1C [Cpd 37, 6-[(2S)-2-aminobutyl]-2-chloro-7-methyl-N-[(thiophen-2-yl)methyl]thieno[3,2-d]pyrimidin-4-amine] | ***** (<0.005 μM) | ***** (>4.9)
2 | C[C@H](N)Cc1sc2c(NCc3ccco3)nc(Cl)nc2c1Br [Cpd 40, 6-[(2S)-2-aminopropyl]-7-bromo-2-chloro-N-[(furan-2-yl)methyl]thieno[3,2-d]pyrimidin-4-amine] | ***** (<0.005 μM) | ***** (>4.9)
3 | Cc1c(C[C@@H](C)CO)sc2c(NCc3ccco3)nc(Cl)nc12 [Cpd 71, (2R)-3-(2-chloro-4-{[(furan-2-yl)methyl]amino}-7-methylthieno[3,2-d]pyrimidin-6-yl)-2-methylpropan-1-ol] | * (EC2×>1 μM) | * (MFI<1.9)
4 | CCc1nc(NCc2ccco2)c2sc(C[C@H](C)N)c(C)c2n1 [Cpd 16, 6-[(2S)-2-aminopropyl]-2-ethyl-N-[(furan-2-yl)methyl]-7-methylthieno[3,2-d]pyrimidin-4-amine] | *** (between >0.02 μM and ≤0.5 μM) | *** (between >2.9 and <3.9)
5 | Cc1c(C[C@H](C)N)sc2c(NCc3ccco3)nc(C(F)(F)F)nc12 [Cpd 26, 6-[(2S)-2-aminopropyl]-N-[(furan-2-yl)methyl]-7-methyl-2-(trifluoromethyl)thieno[3,2-d]pyrimidin-4-amine] | *** (between >0.02 μM and ≤0.5 μM) | **** (between >3.9 and <4.9)
6 | Clc1nc(NCc2ccncc2)c2sccc2n1 [Cpd 1, 2-chloro-N-[(pyridin-4-yl)methyl]thieno[3,2-d]pyrimidin-4-amine] | * (EC2×>1 μM) | **** (between >3.9 and <4.9)
7 | Cc1c(C[C@H](C)N)sc2c(NCc3ccco3)nc(Br)nc12 [Cpd 38, 6-[(2S)-2-aminopropyl]-2-bromo-N-[(furan-2-yl)methyl]-7-methylthieno[3,2-d]pyrimidin-4-amine] | ***** (<0.005 μM) | ***** (>4.9)
8 | CC[C@H](N)Cc1sc2c(NCc3sccc3F)nc(Cl)nc2c1C [Cpd 91, 6-[(2S)-2-aminobutyl]-2-chloro-N-[(3-fluorothiophen-2-yl)methyl]-7-methylthieno[3,2-d]pyrimidin-4-amine] | **** (between >0.005 μM and ≤0.02 μM) | ***** (>4.9)
9 | Cc1c(C[C@@H]2CCOC(=O)N2)sc2c(NCc3ccco3)nc(Cl)nc12 [Cpd 52, (4S)-4-[(2-chloro-4-{[(furan-2-yl)methyl]amino}-7-methylthieno[3,2-d]pyrimidin-6-yl)methyl]-1,3-oxazinan-2-one] | * (EC2×>1 μM) | ** (between >1.9 and <2.9)
10 | Clc1nc(NCc2ccncn2)c2sccc2n1 [Cpd 95, 2-chloro-N-[(pyrimidin-4-yl)methyl]thieno[3,2-d]pyrimidin-4-amine] | * (EC2×>1 μM) | *** (between >2.9 and <3.9)
